Source: US9023789B2, “Amylin analogs and pharmaceutical compositions thereof” (Novo Nordisk A/S, priority 2012, dated 2015)
Numbered stars: 1 amine (or outer) side, 2 acyl side, 3 side chain; on linkers, the order of the positions; unused ones are H or OH. Bridge positions count the residues as written; N and C are the ends. Side chains are listed from the residue outwards. Peptide text beside a SMILES is read from it. * marks the point of attachment. C20 diacid = O=C(O)CCCCCCCCCCCCCCCCCCC(=O)*; γGlu = O=C(O)[C@H](CCC(=O)[*:2])N[*:1]

Experiments:
[1] = ASSAY (III) ThT fibrillation assay for physical stability; assay type: physicochemical
Summary of the method: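 Physical stability scored by ThT fluorescence (444 nm excitation, 485 nm emission) tracked every 20 min during 37 °C incubation with 960 rpm shaking, ThT at 1 μM final. Values are replicate means with SD at chosen times; HPLC against pramlintide standard gives initial and post-assay soluble concentrations.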

[2] = target: T1, rat amylin receptor (rat calcitonin receptor + rat RAMP 3) (Rattus norvegicus, UniProt P32214+Q9JJ73); test: ASSAY (VI) binding to the rat amylin receptor; conditions: for IC50: binding to rat amylin receptor, read-out: rAmylin-R bind IC50
T1 construct: expressed in transfected cells; host or cells: BHK tk'ts 13 (transient, FuGENE 6), membranes
T1 sequence (P32214 25-479 isoform P32214-2 limits assumed): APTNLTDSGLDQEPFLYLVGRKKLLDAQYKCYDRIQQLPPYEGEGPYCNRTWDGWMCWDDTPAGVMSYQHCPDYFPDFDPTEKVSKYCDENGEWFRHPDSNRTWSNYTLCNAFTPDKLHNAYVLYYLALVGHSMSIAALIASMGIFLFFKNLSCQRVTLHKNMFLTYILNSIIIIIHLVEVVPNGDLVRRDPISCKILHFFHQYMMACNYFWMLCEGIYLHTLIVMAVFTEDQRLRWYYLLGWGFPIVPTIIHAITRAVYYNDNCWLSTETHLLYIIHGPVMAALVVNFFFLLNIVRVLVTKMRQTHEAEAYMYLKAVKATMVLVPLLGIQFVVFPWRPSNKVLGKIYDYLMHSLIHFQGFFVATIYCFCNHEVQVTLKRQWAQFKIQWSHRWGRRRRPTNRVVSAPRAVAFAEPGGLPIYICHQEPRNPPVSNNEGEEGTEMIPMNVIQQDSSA
T1 sequence (Q9JJ73 23-147 partner): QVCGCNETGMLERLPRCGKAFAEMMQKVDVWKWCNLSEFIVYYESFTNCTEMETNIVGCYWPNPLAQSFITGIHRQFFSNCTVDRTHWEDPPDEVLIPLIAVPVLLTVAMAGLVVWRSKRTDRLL
Summary of the method: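 The cell-membrane assay assessed binding at the rat amylin receptor. BHK tk′ts 13 cells were transfected transiently with rat calcitonin receptor, with FuGENE® 6 (Roche) as the transfection reagent, used per the manufacturer's recommendations. Approximately 48 hours after transfection the cells were harvested, and membranes were prepared for measuring binding.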

[3] = Table 7, rat binding selectivity, rCTR IC50 / rAmylin-R IC50
[4] = Table 7a (preferred compounds), rat binding selectivity, rCTR IC50 / rAmylin-R IC50
[5] = ratio of rCTR bind IC50 to rAmylin-R bind IC50

Structure (SMILES)	ThT pH 4.0 lag time (h) [1] [h]	IC50 ([2]; Table 7) [pM]	Ratio rCT/rAmylin binding [2, 3]	Ratio rCT/rAmylin binding [2, 4]	Ratio rCT/rAmylin binding [2, 5]
CC[C@H](C)[C@H](NC(=O)[C@H](C)NC(=O)CNC(=O)[C@H](Cc1ccccc1)NC(=O)[C@H](CC(N)=O)NC(=O)[C@@H]1CCCN1C(=O)[C@H](CO)NC(=O)[C@H](CO)NC(=O)[C@H](Cc1c[nH]cn1)NC(=O)[C@H](CCCNC(=N)N)NC(=O)[C@H](CC(C)C)NC(=O)[C@H](Cc1ccccc1)NC(=O)[C@H](CCC(=O)O)NC(=O)[C@H](C)NC(=O)[C@H](CC(C)C)NC(=O)[C@H](CCCNC(=N)N)NC(=O)[C@H](CCC(N)=O)NC(=O)[C@@H](NC(=O)[C@H](C)NC(=O)[C@@H]1CSSC[C@H](NC(=O)[C@@H](N)CCCCNC(=O)CC[C@H](NC(=O)CC[C@H](NC(=O)CCCCCCCCCCCCCCCCCCC(=O)O)C(=O)O)C(=O)O)C(=O)N[C@@H](CC(N)=O)C(=O)N[C@@H]([C@@H](C)O)C(=O)N[C@@H](C)C(=O)N[C@@H]([C@@H](C)O)C(=O)N1)[C@@H](C)O)C(=O)N1CCC[C@H]1C(=O)N[C@@H](CO)C(=O)N[C@@H](CO)C(=O)N[C@H](C(=O)N[C@@H](CC(N)=O)C(=O)N[C@H](C(=O)NCC(=O)N1CCC[C@H]1C(=O)N[C@@H](CCC(=O)O)C(=O)N[C@H](C(=O)N[C@@H](Cc1ccc(O)cc1)C(N)=O)[C@@H](C)O)C(C)C)[C@@H](C)O [Example 106] (H-K([γGlu-γGlu-C20 diacid])CNTATCATQRLAEFLRHSSPNFGAIPSSTNVGPETY-NH2; disulfide 2-7; N-terminus assumed)	33	182	88.5	88.5	88.5
CC[C@H](C)[C@H](NC(=O)[C@H](C)NC(=O)CNC(=O)[C@H](Cc1ccccc1)NC(=O)[C@H](CC(N)=O)NC(=O)[C@@H]1CCCN1C(=O)[C@H](CO)NC(=O)[C@H](CO)NC(=O)[C@H](Cc1c[nH]cn1)NC(=O)[C@H](CCCNC(=N)N)NC(=O)[C@H](CC(C)C)NC(=O)[C@H](Cc1ccccc1)NC(=O)[C@H](CCC(=O)O)NC(=O)[C@H](C)NC(=O)[C@H](CC(C)C)NC(=O)[C@H](CCCNC(=N)N)NC(=O)[C@H](CCC(N)=O)NC(=O)[C@@H](NC(=O)[C@H](C)NC(=O)[C@@H]1CSSC[C@H](NC(=O)[C@@H](N)CCCCNC(=O)CC[C@H](NC(=O)CCCCCCCCCCCCCCCCCCC(=O)O)C(=O)O)C(=O)N[C@@H](CC(N)=O)C(=O)N[C@@H]([C@@H](C)O)C(=O)N[C@@H](C)C(=O)N[C@@H]([C@@H](C)O)C(=O)N1)[C@@H](C)O)C(=O)N1CCC[C@H]1C(=O)N[C@@H](CO)C(=O)N[C@@H](CO)C(=O)N[C@H](C(=O)N[C@@H](CC(N)=O)C(=O)N[C@H](C(=O)NCC(=O)N[C@@H](Cc1c[nH]cn1)C(=O)N[C@@H](CCC(=O)O)C(=O)N[C@H](C(=O)N[C@@H](Cc1ccc(O)cc1)C(N)=O)[C@@H](C)O)C(C)C)[C@@H](C)O [Example 107] (H-K([γGlu-C20 diacid])CNTATCATQRLAEFLRHSSPNFGAIPSSTNVGHETY-NH2; disulfide 2-7 (inferred))	45	958	34.6	34.6	34.6
CC[C@H](C)[C@H](NC(=O)[C@H](C)NC(=O)CNC(=O)[C@H](Cc1ccccc1)NC(=O)[C@H](CC(N)=O)NC(=O)[C@@H]1CCCN1C(=O)[C@H](CO)NC(=O)[C@H](CO)NC(=O)[C@H](Cc1c[nH]cn1)NC(=O)[C@H](CCCNC(=N)N)NC(=O)[C@H](CC(C)C)NC(=O)[C@H](Cc1ccccc1)NC(=O)[C@H](CCC(=O)O)NC(=O)[C@H](C)NC(=O)[C@H](CC(C)C)NC(=O)[C@H](CCCNC(=N)N)NC(=O)[C@H](CCC(N)=O)NC(=O)[C@@H](NC(=O)[C@H](C)NC(=O)[C@@H]1CSSC[C@H](NC(=O)[C@@H](N)CCCCNC(=O)CC[C@H](NC(=O)CCCCCCCCCCCCCCCCCCC(=O)O)C(=O)O)C(=O)N[C@@H](CC(N)=O)C(=O)N[C@@H]([C@@H](C)O)C(=O)N[C@@H](C)C(=O)N[C@@H]([C@@H](C)O)C(=O)N1)[C@@H](C)O)C(=O)N1CCC[C@H]1C(=O)N[C@@H](CO)C(=O)N[C@@H](CO)C(=O)N[C@H](C(=O)N[C@@H](CC(N)=O)C(=O)N[C@H](C(=O)NCC(=O)N[C@@H](CCCNC(=N)N)C(=O)N[C@@H](CCC(=O)O)C(=O)N[C@H](C(=O)N[C@@H](Cc1ccc(O)cc1)C(N)=O)[C@@H](C)O)C(C)C)[C@@H](C)O [Example 108] (H-K([γGlu-C20 diacid])CNTATCATQRLAEFLRHSSPNFGAIPSSTNVGRETY-NH2; disulfide 2-7; N-terminus assumed)	45	1060	81.1	81.1	81.1
CC[C@H](C)[C@H](NC(=O)[C@H](C)NC(=O)CNC(=O)[C@H](Cc1ccccc1)NC(=O)[C@H](CC(N)=O)NC(=O)[C@@H]1CCCN1C(=O)[C@H](CO)NC(=O)[C@H](CO)NC(=O)[C@H](Cc1c[nH]cn1)NC(=O)[C@H](CCCNC(=N)N)NC(=O)[C@H](CC(C)C)NC(=O)[C@H](Cc1ccccc1)NC(=O)[C@H](CCC(=O)O)NC(=O)[C@H](C)NC(=O)[C@H](CC(C)C)NC(=O)[C@H](CCCNC(=N)N)NC(=O)[C@H](CCC(N)=O)NC(=O)[C@@H](NC(=O)[C@H](C)NC(=O)[C@@H]1CSSC[C@H](NC(=O)[C@@H](N)CCCCNC(=O)CC[C@H](NC(=O)CCCCCCCCCCCCCCCCCCC(=O)O)C(=O)O)C(=O)N[C@@H](CC(N)=O)C(=O)N[C@@H]([C@@H](C)O)C(=O)N[C@@H](C)C(=O)N[C@@H]([C@@H](C)O)C(=O)N1)[C@@H](C)O)C(=O)N1CCC[C@H]1C(=O)N[C@@H](CO)C(=O)N[C@@H](CO)C(=O)N[C@H](C(=O)N[C@@H](CC(N)=O)C(=O)N[C@H](C(=O)NCC(=O)N1CCC[C@H]1C(=O)N[C@@H](CCC(=O)O)C(=O)N[C@H](C(=O)N[C@@H](Cc1ccc(O)cc1)C(N)=O)[C@@H](C)O)C(C)C)[C@@H](C)O [Example 109] (H-K([γGlu-C20 diacid])CNTATCATQRLAEFLRHSSPNFGAIPSSTNVGPETY-NH2; disulfide 2-7 (inferred); N-terminus assumed)	35	164	63.2	63.2	63.2
CC[C@H](C)[C@H](NC(=O)[C@H](C)NC(=O)CNC(=O)[C@H](Cc1ccccc1)NC(=O)[C@H](CC(N)=O)NC(=O)[C@@H]1CCCN1C(=O)[C@H](CO)NC(=O)[C@H](CO)NC(=O)[C@H](Cc1c[nH]cn1)NC(=O)[C@H](CCCNC(=N)N)NC(=O)[C@H](CC(C)C)NC(=O)[C@H](Cc1ccccc1)NC(=O)[C@H](CCC(=O)O)NC(=O)[C@H](C)NC(=O)[C@H](CC(C)C)NC(=O)[C@H](CCCNC(=N)N)NC(=O)[C@H](CCC(N)=O)NC(=O)[C@@H](NC(=O)[C@H](C)NC(=O)[C@@H]1CSSC[C@H](NC(=O)[C@@H](N)CCCCNC(=O)CC[C@H](NC(=O)CC[C@H](NC(=O)CCCCCCCCCCCCCCCCCCC(=O)O)C(=O)O)C(=O)O)C(=O)N[C@@H](CC(N)=O)C(=O)N[C@@H]([C@@H](C)O)C(=O)N[C@@H](C)C(=O)N[C@@H]([C@@H](C)O)C(=O)N1)[C@@H](C)O)C(=O)N1CCC[C@H]1C(=O)N[C@@H](CO)C(=O)N[C@@H](CO)C(=O)N[C@H](C(=O)N[C@@H](CC(N)=O)C(=O)N[C@H](C(=O)NCC(=O)N1CCC[C@H]1C(=O)N[C@@H](CCCNC(=N)N)C(=O)N[C@H](C(=O)N[C@@H](Cc1ccc(O)cc1)C(N)=O)[C@@H](C)O)C(C)C)[C@@H](C)O [Example 110] (H-K([γGlu-γGlu-C20 diacid])CNTATCATQRLAEFLRHSSPNFGAIPSSTNVGPRTY-NH2; disulfide 2-7)	17	339	112.9	112.9	112.9
